What was measured:
Type in all cases: cell-based, human
MYB [1] = assay: Splicing RT-qPCR assay, MYB mRNA canonical junction (CJ) and alternative junction (AJ); conditions: Homo sapiens, gene panel, CJ qPCR, protocol of Example 142; read-out: MYB IC50 (decrease in CJ mRNA levels)
Outline: (§1)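 Cells: A673 (DMEM/10% FBS) or K562 (IMDM/10% FBS). Dose: 11-pt 3-fold, top 10 uM final, ≤0.25% DMSO, 24 h, 37 °C. Readout: RT-qPCR of CJ/AJ exon junctions, ΔΔCt vs housekeeper and DMSO, RQ to % response.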

SMN2 = assay: Splicing RT-qPCR panel, SMN2 canonical junction (CJ) mRNA; conditions: Homo sapiens, gene panel, CJ qPCR, protocol of Example 142; read-out: SMN2 IC50 (decrease in CJ mRNA levels)
Outline: as §1

Target C = assay: Splicing RT-qPCR panel, Target C canonical junction (CJ) mRNA; conditions: Homo sapiens, gene panel, CJ qPCR, protocol of Example 142; read-out: Target C IC50 (decrease in CJ mRNA levels)
Outline: as §1

MYB [2] = assay: HiBiT protein abundance assay, MYB; conditions: Homo sapiens, K562, 24 h, Table 13B, modified K562 cells
Outline: (§2)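 Tagged-target degradation assay: HiBiT-modified K562 cells treated 24 h with compound, 10 concentrations up to 10 μM final. Following lysis with LgBiT and substrate, luminescence gave normalized abundance; IC50 derived by logistic interpolation at 50%.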

HTT = assay: HiBiT protein abundance assay, HTT; conditions: Homo sapiens, K562, 24 h, Table 13B, modified K562 cells
Outline: as §2

Row | SMILES | IC50 (MYB [1]) [µM] | IC50 (SMN2) [µM] | IC50 (Target C) [µM] | IC50 (MYB [2]) [µM] | IC50 (HTT) [µM]
1 | CN(c1ccc(-c2ccc(-c3cn[nH]c3)c(F)n2)nn1)[C@@H]1C[C@H]2CC[C@@H](C1)N2 [Compound 922] | 0.1 to 1 | < 0.1 | 0.1 to 1 | < 0.1 | < 0.1
2 | CN(c1ccc(-c2ccc(-c3cn[nH]c3)c(C#N)n2)nn1)[C@@H]1C[C@H]2CC[C@@H](C1)N2 [Compound 930] | 0.1 to 1 | < 0.1 | 0.1 to 1 | < 0.1 | < 0.1
3 | COc1nc(-c2ccc(N(C)[C@@H]3C[C@H]4CC[C@@H](C3)N4)nn2)cc(F)c1-c1cn[nH]c1 [Compound 931] | < 0.1 | < 0.1 | < 0.1 | < 0.1 | < 0.1
4 | CN(c1ccc(-c2ccc(-c3cn[nH]c3)c(OC3CC3)n2)nn1)[C@@H]1C[C@H]2CC[C@@H](C1)N2 [Compound 939] | 0.1 to 1 | < 0.1 | 0.1 to 1 | < 0.1 | < 0.1
5 | COc1cc(-c2ccc(-c3ccc(N(C)[C@@H]4C[C@H]5CC[C@@H](C4)N5)nn3)nc2OC)ncn1 [Compound 954] | 1 to 10 | 0.1 to 1 | 1 to 10 | 1 to 10 | 0.1 to 1
6 | CN(c1ccc(-c2ccc(-c3cn[nH]c3)c(OC(F)F)n2)nn1)[C@@H]1C[C@H]2CC[C@@H](C1)N2 [Compound 955] | 0.1 to 1 | < 0.1 | 0.1 to 1 | < 0.1 | < 0.1
7 | COc1nc(-c2ccc(N3CCC(NC(C)(C)C)C3)nn2)ccc1-c1cn[nH]c1 (centres unmarked) [Compound 956] | 0.1 to 1 | < 0.1 | 0.1 to 1 | 0.1 to 1 | < 0.1
8 | COc1nc(-c2ccc(N(C)[C@@H]3C[C@H]4CC[C@@H](C3)N4)nn2)ccc1-c1ccnc(O)c1 [Compound 961] | 0.1 to 1 | 0.1 to 1 | 0.1 to 1 | 1 to 10 | 0.1 to 1
9 | COc1nc(-c2ccc(O[C@@H]3C[C@H]4CC[C@@H](C3)N4)nn2)ccc1-c1cnc(C)s1 [Compound 962] | 0.1 to 1 | 0.1 to 1 | 1 to 10 | 0.1 to 1 | 0.1 to 1
10 | COc1nc(-c2ccc(OC3CC(C)(C)NC(C)(C)C3)nn2)cc(F)c1-c1cn[nH]c1 [Compound 965] | 0.1 to 1 | < 0.1 | 0.1 to 1 | 0.1 to 1 | < 0.1
11 | CCOc1nc(-c2ccc(OC3CC(C)(C)NC(C)(C)C3)nn2)cc(F)c1-c1cn[nH]c1 [Compound 966] | 0.1 to 1 | < 0.1 | < 0.1 | < 0.1 | < 0.1
12 | CCOc1nc(-c2ccc(OC3CC(C)(C)NC(C)(C)C3)nn2)ccc1-c1cn[nH]c1 [Compound 967] | 0.1 to 1 | < 0.1 | 0.1 to 1 | 0.1 to 1 | < 0.1
13 | COc1nc(-c2ccc(OC3CC4CC(F)(F)C(C3)N4)nn2)cc(F)c1-c1cn[nH]c1 (centres unmarked) [Compound 969] | > 10 | 1 to 10 | > 10 | 0.1 to 1 | 0.1 to 1

— patent US20240368163A1, “COMPOUNDS AND METHODS FOR MODULATING SPLICING” (REMIX THERAPEUTICS INC., priority 2021, published 2024)
